Where only a bound is given, the exact number is not on record here.

The assay relates to Huntingtin protein (HTT). Kind of assay: Endogenous Huntingtin Protein Assay (MSD electrochemiluminescence ELISA; MW1 or MAB2166 capture, #5656S detection). The assay is classed as cell-based, human. As for the experimental part:
The Endogenous Huntingtin Protein assay used in Example 2 was developed using the Best Pair antibodies identified in Table 2, providing highly sensitive, high-throughput detection assays for polyglutamine-expanded (mHTT) and total human HTT in multiple cell systems. The platform used for the assay is the ELISA-based Meso Scale Discovery (MSD) electrochemiluminescence assay platform.
Meso Scale Discovery (MSD) 96-well or 384-well plates were coated overnight at 4° C. with MW1 (expanded polyglutamine) or MAB2166 monoclonal antibody (for capture) at a concentration of 1 μg/mL in PBS (30 μL per well). Plates were then washed three times with 300 μL wash buffer (0.05% Tween-20 in PBS) and blocked (100 μL blocking buffer; 5% BSA in PBS) for 4-5 hours at room temperature with rotational shaking and then washed three times with wash buffer.
Samples (25 μL) were transferred to the antibody-coated MSD plate and incubated overnight at 4° C. After removal of the lysates, the plate was washed three times with wash buffer, and 25 μL of #5656S (Cell signaling; rabbit monoclonal) secondary antibody (diluted to 0.25 μg/mL in 0.05% Tween-20 in blocking buffer) was added to each well and incubated with shaking for 1 Hour at room temperature. Following incubation with the secondary antibody, the wells were rinsed with wash buffer after which 25 μL of goat anti-rabbit SULFO TAG secondary detection antibody (required aspect of the MSD system) (diluted to 0.25 μg/mL in 0.05% Tween-20 in blocking buffer) was added to each well and incubated with shaking for 1 hour at room temperature. After rinsing three times with wash buffer, 150 μL of read buffer T with surfactant (MSD) were added to each empty well, and the plate was imaged on a SI 6000 imager (MSD) according to manufacturers' instructions provided for 96- or 384-well plates.
Broadly, the IC50 is the concentration that inhibits the measured activity by half. A higher IC50 goes with weaker potency in that assay. As to `CC1(C)CC(Oc2ccc(-c3cc(F)c(-c4cn[nH]c4)cc3F)nn2)CC(C)(C)N1` [Cpd 431, 3-[2,5-difluoro-4-(1H-pyrazol-4-yl)phenyl]-6-[(2,2,6,6-tetramethylpiperidin-4-yl)oxy]pyridazine], the half-inhibitory concentration (IC50) was in the range of 100 to 500 nM. On to `CN(c1ccc(-c2ccc(-c3cn[nH]c3)cc2C(F)F)nn1)C1CC(C)(C)NC(C)(C)C1` [Cpd 465, 6-[2-(difluoromethyl)-4-(1H-pyrazol-4-yl)phenyl]-N-methyl-N-(2,2,6,6-tetramethylpiperidin-4-yl)pyridazin-3-amine], for which the IC50 was in the range of 3000 to 9000 nM. In the case of `CN(c1ccc(-c2ccc(-n3ccnc3)cc2O)nn1)C1CC(C)(C)NC(C)(C)C1` [Cpd 46, 5-(1H-imidazol-1-yl)-2-(6-(methyl(2,2,6,6-tetramethylpiperidin-4-yl)amino)pyridazin-3-yl)phenol], the IC50 is at most 100 nM. Then `CN(c1ccc(-c2ccc(C#N)cc2O)nn1)C1CC(C)(C)NC(C)(C)C1` [Cpd 39, 3-hydroxy-4-(6-(methyl(2,2,6,6-tetramethylpiperidin-4-yl)amino)pyridazin-3-yl)benzonitrile], with 3000 to 9000 nM. The value for `CN(c1ccc(-c2ccc(-c3cn[nH]c3)nc2O)nn1)C1CC(C)(C)NC(C)(C)C1` [Cpd 460, 3-{6-[methyl(2,2,6,6-tetramethylpiperidin-4-yl)amino]pyridazin-3-yl}-6-(1H-pyrazol-4-yl)pyridin-2-ol] was 3000 to 9000 nM; that for `CN(c1ccc(-c2cc3ccncc3cc2O)nn1)C1CC(C)(C)NC(C)(C)C1` [Cpd 218, 6-(6-(methyl(2,2,6,6-tetramethylpiperidin-4-yl)amino)pyridazin-3-yl)isoquinolin-7-ol] was at most 100 nM; that for `CC1(C)CC(Oc2ccc(-c3ccc(-c4cn[nH]c4)cc3O)nn2)CC(C)(C)N1` [Cpd 64, 5-(1H-pyrazol-4-yl)-2-(6-((2,2,6,6-tetramethylpiperidin-4-yl)oxy)pyridazin-3-yl)phenol] was at most 100 nM. As to `Oc1cc(-c2cn[nH]c2)ccc1-c1ccc(N2CC3(CCNC3)C2)nn1` [Cpd 459, 2-[6-(2,6-diazaspiro[3.4]oct-2-yl)pyridazin-3-yl]-5-(1H-pyrazol-4-yl)phenol], the half-inhibitory concentration (IC50) lay within 3000 to 9000 nM.

(Values after patent publication US11638706B2, “Methods for treating Huntington's disease” (PTC Therapeutics, Inc., priority 2015, dated 2023).)
